In US20050043304A1, “Novel amine derivative having human beta-tryptase inhibitory activity and drugs containing the same” (priority 2001, published 2005):
Like-named read-outs stand apart in the source and are kept apart here. One block for each molecule: values may come before it.

Columns and labels:
[1] = biological target: T1, β-tryptase (Homo sapiens, UniProt Q15661); assay: β-Tryptase Inhibition Test; type: biochemical
T1 construct: purchased Promega Corporation
Procedure: Sixty μL of a tris-hydrochloric acid buffer (pH 7.5, containing 200 ng/mL of heparin) was added to 20 μL of β-tryptase (manufactured by Promega Corporation) adjusted to 100 ng/mL with the same buffer. Then, 1 μL of a dimethyl sulfoxide (hereinafter, abbreviated to DMSO) solution as a test compound adjusted to a concentration 100 times as high as the final concentration was added to the mixture. After that, 20 μL of a 0.5 mM synthetic substrate Boc-Phe-Ser-Arg-MCA (manufactured by Peptide Institute, Inc) was added to the mixture, and the whole was reacted at 25° C. for 1 hour, followed by the addition of 100 μL of 20% acetic acid for stopping the reaction. Measured was fluorescence of free MCA generated by laser light with an excitation wavelength of 355 nm (fluorescent wavelength=460 nm, hereinafter abbreviated to F 460 nm).
Δ fluorescence count value (a fluorescence count value after an enzyme reaction—a fluorescence count value before the enzyme reaction) was used for a measure of an enzyme inhibition reaction of a drug, and the enzyme inhibition reaction was evaluated in terms of a suppression rate calculated by the following equation.
A=Δ F 460 nm of a mixture (control) of a substrate containing 1% DMSO and an enzyme
B=Δ F 460 nm of a mixture of a substrate containing a drug dissolved in DMSO and an enzyme
C=Δ F 460 nm of a mixture (blank) containing 1% DMSO and a substrate
Suppression rate (%)=(A−B)×100/(A−C)
The β-tryptase inhibitory activity was measured by the method described above.

[2] = biological target: T2, FXa (Homo sapiens, UniProt P00742); assay: FXa Inhibition Test; type: biochemical
T2 construct: FXa (manufactured by Enzyme Research Ltd.); purchased Enzyme Research Ltd
Procedure: 158 μL of a 20 mM tris-hydrochloric acid buffer (pH 7.5, containing 130 mM NaCl, 3.75 mM CaCl2, and 0.1% BSA) was placed on a 96 well microplate, and 20 μL of FXa (manufactured by Enzyme Research Ltd.) adjusted to 0.1 U/mL with the buffer was added to the buffer. Then, 2 μL of a DMSO solution as a test compound adjusted to a concentration 100 times as high as the final concentration was added to the mixture, and the whole was reacted at 37° C. for 3 minutes. After that, 20 μL of an S-2222 substrate solution adjusted to 2 mM with the buffer was added to the mixture, and the whole was reacted at 37° C. for 30 minutes, followed by addition of 100 μL of 20% acetic acid for stopping the reaction. After that, OD 405 nm was measured with a microplate reader.

[3] = test system: trypsin; assay: Trypsin Inhibition Test; type: biochemical; conditions: substrate S-2222, 37° C., 20 minutes; read-out: Enzyme Inhibition IC50 Trypsin
Procedure: Added to 158 μL of a 20 mM tris-hydrochloric acid buffer (pH 7.5, containing 130 mM NaCl, 3.75 mM CaCl2, and 0.1% BSA) was 20 μL of a trypsin solution (manufactured by Sigma, a stock solution of […] was adjusted to 100 ng/mL with 0.001 N HCl containing 0.1% BSA). After that, 2 μL of a DMSO solution as a test compound adjusted to a concentration 100 times as high as the final concentration was added to the mixture, and the whole was reacted at 37° C. for 3 minutes. Then, 20 μL of a 2 mM synthetic substrate S-2222 (manufactured by Daiichi Pure Chemicals Co., Ltd.) was added to the mixture, and the whole was reacted at 37° C. for an additional 20 minutes, followed by addition of 100 μL of 20% acetic acid for stopping the reaction. After that, absorbance at 405 nm (hereinafter, abbreviated to OD 405 nm) was measured with a microplate reader.

[4] = Tryptase Inhibiting Activity IC50, substrate Boc-Phe-Ser-Arg-MCA, 25° C., 1 hour
[5] = substrate Boc-Phe-Ser-Arg-MCA, 25° C., 1 hour, read-out: Tryptase Inhibiting Activity IC50
[6] = read-out: FXa inhibiting activity in terms of IC50
[7] = read-out: β-tryptase inhibitory activity in terms of IC50
[8] = substrate S-2222, 37° C., 30 minutes, read-out: Enzyme Inhibition IC50 FXa
[9] = selectivity test, Table 7, read-out: Enzyme Inhibition IC50 Tryptase
[10] = Enzyme Inhibition IC50 Tryptase, selectivity test, Table 7

T1 sequence (Q15661 31-275): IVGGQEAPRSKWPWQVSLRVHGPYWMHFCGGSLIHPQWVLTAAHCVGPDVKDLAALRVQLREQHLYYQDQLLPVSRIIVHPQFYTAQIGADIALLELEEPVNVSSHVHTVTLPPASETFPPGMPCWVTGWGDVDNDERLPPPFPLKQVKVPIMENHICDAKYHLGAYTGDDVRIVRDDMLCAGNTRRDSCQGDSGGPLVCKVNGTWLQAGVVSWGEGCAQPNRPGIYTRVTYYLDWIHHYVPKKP
T2 sequence (P00742 235-488 limits assumed): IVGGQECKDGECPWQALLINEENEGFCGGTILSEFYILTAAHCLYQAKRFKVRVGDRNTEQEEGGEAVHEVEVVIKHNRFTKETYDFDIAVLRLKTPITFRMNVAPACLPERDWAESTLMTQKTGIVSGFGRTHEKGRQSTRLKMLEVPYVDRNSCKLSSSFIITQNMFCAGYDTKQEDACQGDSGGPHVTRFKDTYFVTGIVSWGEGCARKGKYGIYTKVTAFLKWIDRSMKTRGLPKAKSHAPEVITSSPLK
T2 sequence (P00742 41-179 partner limits assumed): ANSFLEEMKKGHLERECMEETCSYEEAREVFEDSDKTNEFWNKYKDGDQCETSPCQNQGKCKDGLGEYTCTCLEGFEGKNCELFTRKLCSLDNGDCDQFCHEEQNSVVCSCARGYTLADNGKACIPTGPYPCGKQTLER

SMILES: NCc1ccc(CCCNCCNS(=O)(=O)c2ccc3c(c2)CCC3)cc1 [Compound 7]
IC50 [1, 4]: 200 nM
melting point: 199 to 199.7 °C

SMILES: NCc1ccc(CCCNCCNS(=O)(=O)c2ccc3sccc3c2)cc1 [Compound 5]
IC50 [1, 4]: 210 nM
melting point: 264.2 to 265.4 °C

SMILES: CN(CCCc1ccc(CN)cc1)CCNC(=O)c1cc2cc(C(F)(F)F)ccc2[nH]1 [Compound 63]
IC50 [1, 5]: 32 nM

SMILES: CN(CCCc1ccc(CN)cc1)CCNC(=O)c1c[nH]c2ccccc12 [Compound 51]
IC50 [1, 5]: 100 nM

SMILES: CN(CCCc1ccc(CN)cc1)CCNCc1cc2ccccc2s1 [Compound 91]
IC50 [1, 5]: 310 nM

SMILES: NCc1ccc(CCCNCCNS(=O)(=O)c2ccc3c(c2)CNCC3)cc1 [Compound 9]
IC50 [1, 4]: 190 nM
melting point: 233.9 to 234.5 °C

SMILES: CN(CCCc1ccc(CN)cc1)CCNC(=O)c1cc2cc(OCc3ccccc3)ccc2[nH]1 [Compound 72]
IC50 [2, 8]: > 100000 nM
IC50 [1, 9]: 15 nM
IC50 [3]: > 100000 nM

SMILES: NCc1ccc(CCCNCCNC(=O)c2ccc3ncccc3c2)cc1 [Compound 13]
IC50 [1, 5]: 190 nM
melting point: 269.5 to 271.2 °C

SMILES: CN(CCCc1ccc(CN)cc1)CCNS(=O)(=O)c1ccc2ccccc2c1Cl [Compound 20]
IC50 [1, 5]: 15 nM
melting point: 221.5 to 222.7 °C

SMILES: CN(CCCc1ccc(CN)cc1)CCNC(=O)c1cc2cc(F)ccc2[nH]1 [Compound 62]
IC50 [1, 5]: 14 nM

SMILES: CN(CCCc1ccc(CN)nc1)CCNC(=O)c1ccc2[nH]ccc2c1 [Compound 89]
IC50 [1, 5]: 140 nM

SMILES: CN(CCCc1ccc(CN)s1)CCNC(=O)c1cc2ccccc2s1 [Compound 90]
IC50 [1, 5]: 200 nM

SMILES: CN(CCCc1ccc(CN)cc1)CCN(C)C(=O)c1cc2cc(Cl)ccc2[nH]1 [Compound 87]
IC50 [1, 5]: 1 nM
melting point: 190.2 to 191.4 °C

SMILES: CN(CCCc1ccc(CN)cc1)CCNS(=O)(=O)c1ccc2ccccc2c1 [Compound 17]
IC50 [2, 8]: > 30000 nM
IC50 [1]: 120 nM
IC50 [1, 10]: 120 nM
IC50 [3]: > 30000 nM
melting point: 91.6 to 92 °C

SMILES: NCc1ccc(CCCNCCNS(=O)(=O)c2ccc3ccccc3c2Cl)cc1 [compound 4]
IC50 [2, 6]: ≥ 100000 nM

SMILES: NCc1ccc(CCCNCCNS(=O)(=O)c2ccc3ccccc3c2Cl)cc1 [Compound 4]
IC50 [2, 8]: > 100000 nM
IC50 [3]: > 100000 nM
melting point: 264.3 to 265.6 °C

SMILES: CN(CCCc1ccc(CN)cc1)CCNC(=O)c1sc2ccccc2c1Cl [Compound 49]
IC50 [1, 5]: 15 nM

SMILES: CN(CCCc1ccc(CN)cc1)CCN(C)C(=O)c1cc2cc(Cl)ccc2[nH]1 [compound 87]
IC50 [1, 7]: ≤ 10 nM

SMILES: CCN(CCCc1ccc(CN)cc1)CCNS(=O)(=O)c1ccc2ccccc2c1 [Compound 18]
IC50 [1, 5]: 140 nM

SMILES: NCc1ccc(CCCNCCNC(=O)c2ccc3ccccc3c2)cc1 [Compound 11]
IC50 [2, 8]: > 30000 nM
IC50 [1, 9]: 150 nM
IC50 [1, 5]: 150 nM
IC50 [3]: > 30000 nM
melting point: 69.7 to 72.2 °C

SMILES: CN(CCCc1ccc(CN)cc1)CCNC(=O)c1nc2ccccc2s1 [Compound 77]
IC50 [1, 5]: 73 nM

SMILES: NCc1ccc(CCCN(CCNS(=O)(=O)c2ccc3ccccc3c2)CCC(=O)O)cc1 [Compound 33]
IC50 [1, 5]: 440 nM

SMILES: NCc1ccc(CCCNCCNS(=O)(=O)c2ccc3ccccc3c2)cc1 [Compound 1]
IC50 [2, 8]: > 100000 nM
IC50 [1]: 86 nM
IC50 [1, 10]: 86 nM
IC50 [3]: > 100000 nM

SMILES: CN(CCCc1ccc(CN)cc1)CCNC(=O)c1cc2ccccc2o1 [Compound 45]
IC50 [1, 5]: 20 nM

Other lines, results leading:

IC50 [1, 5]: 55 nM
SMILES: CN(CCCc1ccc(CN)cc1)CCNC(=O)c1cc2cc(C(=O)O)ccc2[nH]1 [Compound 69]

IC50 [2, 6]: ≥ 100000 nM
IC50 [1, 7]: ≤ 10 nM
SMILES: CN(CCCc1ccc(CN)cc1)CCNC(=O)c1ccc2cc(Br)ccc2c1 [compound 41]

IC50 [1, 7]: ≤ 10 nM
SMILES: CN(CCCc1ccc(CN)cc1)CCNC(=O)c1ccc2cc[nH]c2c1 [compound 53]

IC50 [1, 5]: 1 nM
SMILES: CN(CCCc1ccc(CN)cc1)CCNC(=O)c1ccc2c(ccn2C)c1 [Compound 73]

IC50 [2, 8]: > 100000 nM
IC50 [1, 9]: 6 nM
IC50 [1, 5]: 6 nM
IC50 [3]: > 100000 nM
SMILES: CN(CCCc1ccc(CN)cc1)CCNC(=O)c1cc2cc(Br)ccc2[nH]1 [Compound 61]

IC50 [2, 8]: > 100000 nM
IC50 [1, 9]: 6 nM
IC50 [3]: > 100000 nM
melting point: 166.4 to 170 °C
SMILES: CN(CCCc1ccc(CN)cc1)CCNC(=O)c1cc2cc(Cl)ccc2[nH]1 [Compound 58]

IC50 [2, 8]: > 100000 nM
IC50 [1, 9]: 8 nM
IC50 [3]: > 100000 nM
SMILES: CN(CCCc1ccc(CN)cc1)CCNC(=O)c1ccc2cc(Br)ccc2c1 [Compound 41]

IC50 [1, 5]: 64 nM
SMILES: CN(CCCc1ccc(CN)cc1)CCNC(=O)c1ccc2occc2c1 [Compound 46]

IC50 [2, 6]: ≥ 100000 nM
IC50 [1, 7]: ≤ 10 nM
SMILES: Cc1ccc2[nH]c(C(=O)NCCN(C)CCCc3ccc(CN)cc3)cc2c1 [compound 55]

IC50 [1, 7]: ≤ 10 nM
SMILES: CN(CCCc1ccc(CN)cc1)CCNC(=O)c1ccc2c(ccn2C)c1 [compound 73]

IC50 [1, 5]: 20 nM
SMILES: CN(CCCc1ccc(CN)cc1)CCNC(=O)c1ccc2ncsc2c1 [Compound 78]

IC50 [2, 8]: > 100000 nM
IC50 [1, 9]: 8 nM
IC50 [3]: > 100000 nM
SMILES: CC(=O)c1ccc2[nH]c(C(=O)NCCN(C)CCCc3ccc(CN)cc3)cc2c1 [Compound 70]

IC50 [2, 6]: ≥ 100000 nM
IC50 [1, 7]: ≤ 10 nM
SMILES: CN(CCCc1ccc(CN)cc1)CCNC(=O)c1cc2cc(Br)ccc2[nH]1 [compound 61]

IC50 [2, 8]: > 100000 nM
IC50 [1, 9]: 5 nM
IC50 [1, 5]: 5 nM
IC50 [3]: > 100000 nM
SMILES: Cc1ccc2[nH]c(C(=O)NCCN(C)CCCc3ccc(CN)cc3)cc2c1 [Compound 55]

IC50 [2, 6]: ≥ 100000 nM
IC50 [1, 7]: ≤ 10 nM
SMILES: CN(CCCc1ccc(CN)cc1)CCNC(=O)c1cc2cc(Cl)ccc2[nH]1 [compound 58]

IC50 [2, 6]: ≥ 100000 nM
IC50 [1, 7]: ≤ 10 nM
SMILES: CC(=O)c1ccc2[nH]c(C(=O)NCCN(C)CCCc3ccc(CN)cc3)cc2c1 [compound 70]

IC50 [1, 5]: 5 nM
SMILES: CN(CCCc1ccc(CN)cc1)CCNC(=O)c1ccc2cc[nH]c2c1 [Compound 53]
